From patent publication US20170209483A1, “ANTIBIOTIC ACTIVITY OF IRON SEQUESTERING POLYMERS” (UNIVERSITY OF KANSAS, priority 2014, published 2017)
Counter-ions that a name gives are not always drawn.

Columns and labels:
[1] = system: Pseudomonas aeruginosa strain PA01 wild type; assay: PAI-DHBA as an adjuvant to conventional antibiotics on bacterial growth; format: cell-based; conditions: Ciprofloxacin 1 μg/mL added at 5 h, read at 9 h, versus control
P. aeruginosa = conditions: concentrations used reflect reported MICs; cited from earlier work
[2] = in vivo; cited from earlier work
[3] = system: Pseudomonas aeruginosa strain PA01 wild type; assay: Comparison to traditional iron chelating agents, bacterial counts; format: cell-based; conditions: EDTA or HBED 500 μM, PAI-DHBA 20 mg, added at inoculation; 5, 6 and 12 h

Row | Molecule | Reported MIC (P. aeruginosa) [µg/mL] | Bacterial count (CFU/mL) versus control (no chelator) [3] | further results
1 | O=C(O)c1cn(C2CC2)c2cc(N3CCNCC3)c(F)cc2c1=O [Ciprofloxacin, Ciprofloxacin hydrochloride] | 1 |  | Overall reduction in CFU/mL [1]: approximately 4 log units
2 | CC(=O)N(O)CCCCCNC(=O)CCC(=O)N(O)CCCCCNC(=O)CCC(=O)N(O)CCCCCN [DFO, deferoxamine] |  |  | Plasma half-life [2]: ~5.5 min
3 | O=C(O)CN(CCN(CC(=O)O)Cc1ccccc1O)Cc1ccccc1O [HBED, N,N-bis (2-hydroxybenzyl) ethylenediamine-N,N-diacetic acid] |  | small, transient difference | 
4 | Gentamicin sulfate | 24 |  | 
5 | sodium ethylene diamine tetraacetate [EDTA] |  | small, transient difference | 
